From patent US5736510A, “Antibiotics 10381v, w, x,y, z1, z2, pre-b and t” (priority 1996, dated 1998)
Entries after “also recorded” stand apart in the source; their conditions may differ. Where two headings read alike, the source gives them in different places.

How the values were obtained:
Format in all cases: cell-based
[1] = tested on: C. perfringens; parameters: Minimal Inhibitory Concentration (bioactivity data): unit not given here; conditions: for M.I.C.: Table III, mass basis, no correction for purity; for Minimal Inhibitory Concentration (bioactivity data): Table IV (separate study)
[2] = tested on: S. faecalis; conditions: for M.I.C.: Table III, mass basis, no correction for purity; for Minimal Inhibitory Concentration (bioactivity data): Table IV (separate study)
[3] = tested on: S. bovis; conditions: strain JB1; for Minimal Inhibitory Concentration (bioactivity data): Table IV (separate study)
[4] = tested on: B. fragilis; conditions: strain UC9370; for Minimal Inhibitory Concentration (bioactivity data): Table IV (separate study)
[5] = tested on: B. thetaiotaomicron; conditions: strain UC9014; for Minimal Inhibitory Concentration (bioactivity data): Table IV (separate study)
Procedure: (§1) The assay measures the ability of a compound to inhibit the growth of certain types of anaerobic bacteria which normally inhabit the gut of poultry, swine or cattle.
(§2) Two mg/ml solutions of the drugs to be tested are made in 10% v/v ethanol/water. This stock is then diluted to one mg per ml and then further diluted through a series of ten-two fold dilutions. At each concentration an aliquot is placed in a sterile petri plate. Nine volumes of molten agar are then added to each plate, mixed and allowed to harden at room temperature. These plates are then transferred to a Coy chamber and allowed to dry and equilibrate with the oxygen free atmosphere.
(§3) Organisms used for MIC testing are inoculated into broth media, and incubated 18-24 h at 39° C. prior to use. The cultures are then diluted to equal the turbidity of a 0.5 MacFarland barium sulfate standard, except for the porcine isolates P108-3C1, P105-1C3 and P105-1C4 which are diluted 1:1. All inoculations and dilutions are performed in the anaerobic chamber using broth media and syringe transfer through the butyl robber stoppers.
(§4) Freshly prepared and diluted cultures are loaded into the wells of a Steers replicator device. This apparatus can dispense ca 10 μl of each of 32 cultures onto the surface of the preincubated agar plates. One hour after the inoculation, the inoculum will have been absorbed and the plates are inverted and incubated at 38°-39° C. for 48 h. Plates are then removed from the chamber and the MIC for the test compounds determined. MIC's are reported as the lowest concentration of a compound which prevented detectable growth of a test organism on the agar plates. […] Thus, each set of test plates yields individual MIC values for each of the 32 test organisms.

[6] = tested on: E. lentum; conditions: strain L-34; Table IV (separate study)
[7] = tested on: B. fibrisolvens; conditions: for M.I.C.: Table III, mass basis, no correction for purity; for Minimal Inhibitory Concentration (bioactivity data): Table IV (separate study)
[8] = tested on: M. elsdenii; conditions: strain B159; for Minimal Inhibitory Concentration (bioactivity data): Table IV (separate study)
[9] = tested on: L. multiparus; conditions: strain 40; for Minimal Inhibitory Concentration (bioactivity data): Table IV (separate study)
[10] = tested on: S. ruminantium; conditions: for M.I.C.: Table III, mass basis, no correction for purity; for Minimal Inhibitory Concentration (bioactivity data): Table IV (separate study)
[11] = tested on: R. amylophilus; conditions: strain H18; for Minimal Inhibitory Concentration (bioactivity data): Table IV (separate study)
[12] = tested on: R. flavefaciens; conditions: for M.I.C.: Table III, mass basis, no correction for purity; for Minimal Inhibitory Concentration (bioactivity data): Table IV (separate study)
[13] = tested on: E. ruminantium; conditions: strain GA195
[14] = tested on: P. ruminicola; conditions: strain 118B; for Minimal Inhibitory Concentration (bioactivity data): Table IV (separate study)
[15] = tested on: F. necrophorum; conditions: for M.I.C.: Table III, mass basis, no correction for purity; for Minimal Inhibitory Concentration (bioactivity data): Table IV (separate study)
[16] = tested on: S. hyodysenteriae; parameters: unit not given here; conditions: Table IV (separate study)
Procedure: as §1, §2, §3, §4

[17] = tested on: anaerobic bacteria which normally inhabit the gut of poultry, swine or cattle; experiment: in vitro MIC assay, overall comparison of components across the test organisms; conditions: for in vitro activity ranking of the individual components: conclusion from Tables III and IV
Procedure: as §1, §2, §3, §4

[18] = Table III, mass basis, no correction for purity

Structure (SMILES): C=C(NC(=O)c1ccc2c(n1)-c1coc(n1)C(=C)NC(=O)C(=C)NC(=O)c1nc(oc1C)C(=CC)NC(=O)c1csc(n1)C(OC)NC(=O)c1nc(oc1C)C(=CC(C)O)NC(=O)C(C(C)O)NC(=O)c1csc-2n1)C(N)=O (stereo not drawn) [Antibiotic 10381y, 52-de[1-[[[1-(aminocarbonyl)ethenyl]amino]carbonyl]ethenyl]-sulfomycin I]
- M.I.C. ([1]; strain 71A02): < 0.2 µg/mL
- Minimal Inhibitory Concentration (bioactivity data) ([1]; strain 71A02): < 0.2
- M.I.C. ([1]; strain A82-1): 0.8 µg/mL
- Minimal Inhibitory Concentration (bioactivity data) ([1]; strain A82-1): 12.5
- M.I.C. ([1]; strain A83-3): < 0.2 µg/mL
- Minimal Inhibitory Concentration (bioactivity data) ([1]; strain A83-3): < 0.2
- M.I.C. ([1]; strain A83-RKP): 0.4 µg/mL
- Minimal Inhibitory Concentration (bioactivity data) ([1]; strain A83-RKP): < 0.2
- M.I.C. ([1]; strain CCS1-11): 0.8 µg/mL
- Minimal Inhibitory Concentration (bioactivity data) ([1]; strain CCS1-11): < 0.2
- M.I.C. ([1]; strain CCS2-09): < 0.2 µg/mL
- Minimal Inhibitory Concentration (bioactivity data) ([1]; strain CCS2-09): < 0.2
- M.I.C. ([1]; strain P1051C3): 12.5 µg/mL
- Minimal Inhibitory Concentration (bioactivity data) ([1]; strain P1051C3): 6.3
- M.I.C. ([1]; strain P1083C1): < 0.2 µg/mL
- Minimal Inhibitory Concentration (bioactivity data) ([1]; strain P1083C1): 0.8
- M.I.C. ([1]; strain RF1B04): < 0.2 µg/mL
- Minimal Inhibitory Concentration (bioactivity data) ([1]; strain RF1B04): < 0.2
- M.I.C. ([1]; strain UC9452): < 0.2 µg/mL
- Minimal Inhibitory Concentration (bioactivity data) ([1]; strain UC9452): 0.8
- M.I.C. ([2]; strain 71A01): 6.3 µg/mL
- Minimal Inhibitory Concentration (bioactivity data) ([2]; strain 71A01): 6.3
- M.I.C. ([2]; strain CCS1-03): 1.6 µg/mL
- Minimal Inhibitory Concentration (bioactivity data) ([2]; strain CCS1-03): 3.1
- M.I.C. ([2]; strain P1051C4): 1.6 µg/mL
- Minimal Inhibitory Concentration (bioactivity data) ([2]; strain P1051C4): 0.8
- M.I.C. [3, 18]: 0.4 µg/mL
- Minimal Inhibitory Concentration (bioactivity data) [3]: 0.8
- M.I.C. [4, 18]: 1.6 µg/mL
- Minimal Inhibitory Concentration (bioactivity data) [4]: 50.0
- M.I.C. [5, 18]: < 0.2 µg/mL
- Minimal Inhibitory Concentration (bioactivity data) [5]: 50.0
- Minimal Inhibitory Concentration (bioactivity data) [6]: < 0.2
- M.I.C. ([7]; strain 49): < 0.2 µg/mL
- Minimal Inhibitory Concentration (bioactivity data) ([7]; strain 49): 0.4
- M.I.C. ([7]; strain D1): < 0.2 µg/mL
- Minimal Inhibitory Concentration (bioactivity data) ([7]; strain D1): < 0.2
- M.I.C. [8, 18]: > 100.0 µg/mL
- Minimal Inhibitory Concentration (bioactivity data) [8]: > 100
- M.I.C. [9, 18]: < 0.2 µg/mL
- Minimal Inhibitory Concentration (bioactivity data) [9]: 12.5
- M.I.C. ([10]; strain GA31): 25.0 µg/mL
- Minimal Inhibitory Concentration (bioactivity data) ([10]; strain GA31): < 0.2
- M.I.C. ([10]; strain GA192): > 100.0 µg/mL
- Minimal Inhibitory Concentration (bioactivity data) ([10]; strain GA192): < 0.2
- M.I.C. [11, 18]: 100.0 µg/mL
- Minimal Inhibitory Concentration (bioactivity data) [11]: < 0.2
- M.I.C. ([12]; strain C94): 6.3 µg/mL
- Minimal Inhibitory Concentration (bioactivity data) ([12]; strain C94): 0.8
- M.I.C. ([12]; strain FD1): < 0.2 µg/mL
- Minimal Inhibitory Concentration (bioactivity data) ([12]; strain FD1): 0.4
- M.I.C. [13, 18]: 6.3 µg/mL
- Minimal Inhibitory Concentration (bioactivity data) ([13]; Table IV (separate study)): 0.8
- M.I.C. [14, 18]: < 0.2 µg/mL
- Minimal Inhibitory Concentration (bioactivity data) [14]: < 0.2
- M.I.C. ([15]; strain FN4070): 25.0 µg/mL
- Minimal Inhibitory Concentration (bioactivity data) ([15]; strain FN4070): 50.0
- M.I.C. ([15]; strain FN5052): 25.0 µg/mL
- Minimal Inhibitory Concentration (bioactivity data) ([15]; strain FN5052): 50.0
- Minimal Inhibitory Concentration (bioactivity data) ([16]; strain 16-4): > 100
- Minimal Inhibitory Concentration (bioactivity data) ([16]; strain B204): > 100
- bioactivity relative to the 10381b antibiotic complex or the 10381b (10381b2) component ([17]; against a variety of microorganisms): increased antimicrobial activity; also recorded: about double
- in vitro activity ranking of the individual components [17]: most active

Structure (SMILES): C=C(NC(=O)C(=C)NC(=O)C(=C)NC(=O)c1ccc2c(n1)-c1coc(n1)C(=C)NC(=O)C(=C)NC(=O)c1nc(oc1C)C(=CC)NC(=O)c1csc(n1)CNC(=O)c1nc(oc1C)C(=CC(C)O)NC(=O)C(C(C)O)NC(=O)c1csc-2n1)C(N)=O (stereo not drawn) [Antibiotic 10381pre-b]
- Minimal Inhibitory Concentration (bioactivity data) ([1]; strain A82-1): > 100
- Minimal Inhibitory Concentration (bioactivity data) ([1]; strain A83-3): 1.6
- Minimal Inhibitory Concentration (bioactivity data) ([1]; strain A83-RKP): 1.6
- Minimal Inhibitory Concentration (bioactivity data) ([1]; strain CCS2-09): 50.0
- Minimal Inhibitory Concentration (bioactivity data) ([1]; strain P1051C3): > 100
- Minimal Inhibitory Concentration (bioactivity data) ([1]; strain P1083C1): 25.0
- Minimal Inhibitory Concentration (bioactivity data) ([1]; strain RF1B04): 1.6
- Minimal Inhibitory Concentration (bioactivity data) ([1]; strain UC9452): 25.0
- Minimal Inhibitory Concentration (bioactivity data) ([2]; strain 71A01): > 100
- Minimal Inhibitory Concentration (bioactivity data) ([2]; strain CCS1-03): > 100
- Minimal Inhibitory Concentration (bioactivity data) ([2]; strain P1051C4): > 100
- Minimal Inhibitory Concentration (bioactivity data) [3]: 50.0
- Minimal Inhibitory Concentration (bioactivity data) [4]: > 100
- Minimal Inhibitory Concentration (bioactivity data) [5]: > 100
- Minimal Inhibitory Concentration (bioactivity data) [6]: < 0.2
- Minimal Inhibitory Concentration (bioactivity data) ([7]; strain 49): 50.0
- Minimal Inhibitory Concentration (bioactivity data) ([7]; strain D1): 12.5
- Minimal Inhibitory Concentration (bioactivity data) [8]: > 100
- Minimal Inhibitory Concentration (bioactivity data) [9]: > 100
- Minimal Inhibitory Concentration (bioactivity data) ([10]; strain GA31): 50.0
- Minimal Inhibitory Concentration (bioactivity data) ([10]; strain GA192): 6.3
- Minimal Inhibitory Concentration (bioactivity data) [11]: > 100
- Minimal Inhibitory Concentration (bioactivity data) ([12]; strain C94): 25.0
- Minimal Inhibitory Concentration (bioactivity data) ([12]; strain FD1): 25.0
- Minimal Inhibitory Concentration (bioactivity data) [14]: < 0.2
- Minimal Inhibitory Concentration (bioactivity data) ([15]; strain FN4070): > 100
- Minimal Inhibitory Concentration (bioactivity data) ([15]; strain FN5052): > 100
- Minimal Inhibitory Concentration (bioactivity data) ([16]; strain 16-4): > 100
- Minimal Inhibitory Concentration (bioactivity data) ([16]; strain B204): > 100
- in vitro activity ranking of the individual components [17]: considerably less active
